One test has as its target Vasopressin V1a receptor (Homo sapiens, UniProt P37288). Kind of test: Radioligand Binding Assay to HeLa Cells. The procedure:
(§1) After reaching confluence in 12-well or 24-well dishes, the cells were washed twice with ice-cold PBS and incubated for 2 hr with [3H]-AVP at 4 deg C. For the competition experiment, test compounds were dissolved in dimethyl sulfoxide, diluted with DMEM medium and added into the wells at several appropriate concentrations. […] The protein content of the lysed cells was determined by the method of Bradford.

Another test concerns the target Vasopressin V2 receptor (Homo sapiens, UniProt P30518). Kind of test: Radioligand Binding Assay to HeLa Cells. Conditions: pH 7.4; 4 °C. The procedure:
as §1

Usually IC50 stands for the concentration needed to halve the response being measured. Read a low IC50 as higher potency.

Vasopressin V1a receptor, sequence (P37288 whole entry): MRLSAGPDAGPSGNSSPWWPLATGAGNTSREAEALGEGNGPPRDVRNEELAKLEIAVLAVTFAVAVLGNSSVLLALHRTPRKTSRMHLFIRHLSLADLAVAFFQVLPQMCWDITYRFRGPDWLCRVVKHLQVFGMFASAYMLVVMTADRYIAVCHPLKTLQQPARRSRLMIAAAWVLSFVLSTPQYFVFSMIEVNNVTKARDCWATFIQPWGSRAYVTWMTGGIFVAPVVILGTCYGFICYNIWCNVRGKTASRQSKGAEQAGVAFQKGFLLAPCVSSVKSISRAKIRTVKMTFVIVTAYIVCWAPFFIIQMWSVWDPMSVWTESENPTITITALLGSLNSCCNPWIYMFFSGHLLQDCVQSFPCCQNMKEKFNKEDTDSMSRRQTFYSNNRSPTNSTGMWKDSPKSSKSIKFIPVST
Vasopressin V2 receptor, sequence (P30518 whole entry): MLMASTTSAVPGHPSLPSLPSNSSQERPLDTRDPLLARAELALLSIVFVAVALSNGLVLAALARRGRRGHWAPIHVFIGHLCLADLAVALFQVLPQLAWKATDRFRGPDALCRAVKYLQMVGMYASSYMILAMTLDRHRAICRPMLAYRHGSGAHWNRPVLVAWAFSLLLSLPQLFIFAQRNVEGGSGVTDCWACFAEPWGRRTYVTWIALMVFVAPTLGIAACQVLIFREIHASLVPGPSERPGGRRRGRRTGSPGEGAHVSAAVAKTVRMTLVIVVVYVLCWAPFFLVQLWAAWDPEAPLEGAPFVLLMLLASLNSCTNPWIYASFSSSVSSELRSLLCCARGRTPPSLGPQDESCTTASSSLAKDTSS

For `CNC1CCCN(C(=O)c2ccc(NC(=O)c3ccccc3C)cc2)c2ccc(Cl)cc21` (stereo not drawn) [benzazepine derivative, 13a], the IC50 came out at 0.064 µM on Vasopressin V1a receptor (pH 7.4, 4 °C) and 0.007 µM at Vasopressin V2 receptor.
For `Cc1ccccc1C(=O)Nc1ccc(C(=O)N2CCCC(N(C)C)c3cc(Cl)ccc32)cc1` (stereo not drawn) [benzazepine derivative, 14], in that order: 0.19 µM and 0.025 µM.
For `Cc1ccccc1C(=O)Nc1ccc(C(=O)N2CCCC(N(C)C)c3ccc(Cl)cc32)cc1` (stereo not drawn) [benzazepine derivative, 15], in that order: 1.2 µM and 0.063 µM.
For `Cc1ccccc1C(=O)Nc1ccc(C(=O)N2CCCC(N(C)C)c3cccc(Cl)c32)cc1` (stereo not drawn) [benzazepine derivative, 16], in that order: 0.54 µM and 0.14 µM.
For `Cc1ccccc1C(=O)Nc1ccc(C(=O)N2CCCC(N(C)C)c3c(Cl)cccc32)cc1` (stereo not drawn) [benzazepine derivative, 17], the IC50 on Vasopressin V1a receptor (pH 7.4, 4 °C) came to 1.7 µM; on Vasopressin V2 receptor it was 0.19 µM.
Take `C=CCNC1CCCN(C(=O)c2ccc(NC(=O)c3ccccc3C)cc2)c2ccc(Cl)cc21` (stereo not drawn) [benzazepine derivative, 18]: the IC50 at Vasopressin V1a receptor (pH 7.4, 4 °C) was found to be 0.045 µM; at Vasopressin V2 receptor, 0.018 µM.
Turning to `C=CCN(C)C1CCCN(C(=O)c2ccc(NC(=O)c3ccccc3C)cc2)c2ccc(Cl)cc21` (stereo not drawn) [benzazepine derivative, 19], the IC50 on Vasopressin V1a receptor (pH 7.4, 4 °C) was found to be 0.35 µM; on Vasopressin V2 receptor, 0.097 µM.
In the case of `Cc1ccccc1C(=O)Nc1ccc(C(=O)N2CCCC(O)c3cc(Cl)ccc32)cc1` (stereo not drawn) [benzazepine derivative, 20], the IC50 was found to be 0.017 µM on Vasopressin V1a receptor (pH 7.4, 4 °C) and 0.003 µM on Vasopressin V2 receptor.
For `COC1CCCN(C(=O)c2ccc(NC(=O)c3ccccc3C)cc2)c2ccc(Cl)cc21` (stereo not drawn) [benzazepine derivative, 21], in that order: 0.034 µM and 0.005 µM.
For `C=CCOC1CCCN(C(=O)c2ccc(NC(=O)c3ccccc3C)cc2)c2ccc(Cl)cc21` (stereo not drawn) [benzazepine derivative, 22], in that order: 0.053 µM and 0.009 µM.
In the same order, the values of `Cc1ccccc1C(=O)Nc1ccc(C(=O)N2CCCC(O)c3cc(Cl)ccc32)c(Cl)c1` (stereo not drawn) [benzazepine derivative, 30] are 0.29 µM and 0.008 µM.
For `Cc1ccccc1C(=O)Nc1ccc(C(=O)N2CCCC(O)c3cc(Cl)ccc32)cc1Cl` (stereo not drawn) [benzazepine derivative, 31], the IC50 on Vasopressin V1a receptor (pH 7.4, 4 °C) was 0.031 µM; at Vasopressin V2 receptor, 0.028 µM.
Turning to `COc1cc(NC(=O)c2ccccc2C)ccc1C(=O)N1CCCC(O)c2cc(Cl)ccc21` (stereo not drawn) [benzazepine derivative, 33], the values for the IC50 on Vasopressin V1a receptor and at Vasopressin V2 receptor were 0.039 µM and 0.013 µM, respectively.
In the same order, the values of `COc1cc(C(=O)N2CCCC(O)c3cc(Cl)ccc32)ccc1NC(=O)c1ccccc1C` (stereo not drawn) [benzazepine derivative, 34] are 0.007 µM and 0.005 µM.
